{"source": "patent US9421298B2", "about": "“Tissue adhesive based on nitrogen-modified aspartates” (Adhesys Medical GmbH, priority 2011, dated 2016)", "system": "L929 cells", "test": "Cytotoxicity in accordance with ISO 10993-5:2009 with L929 cells", "assay_type": "cell-based", "conditions": "prepolymer A cured with an equivalent amount of curing agent", "procedure": "The prepolymer A was cured with an equivalent amount of 2. The cytotoxicity was measured in accordance with ISO 10993-5:2009 with L929 cells. […] The system can therefore not be classed as being cytotoxic.", "data": [{"smiles": "CCOC(=O)CC(NCCCCCCNCCCCCCNC(CC(=O)OCC)C(=O)OCC)C(=O)OCC", "note": "(stereo not shown) [Curing agent 2, triethyl 4-oxo-3-oxa-7,14,21-triazatricosane-6,22,23-tricarboxylate]", "values": [{"measurement": "Cytotoxicity (cell viability)", "value": "No reduction in cell viability"}]}]}
